Laboratory results from patent publication US20210338629A1, “ORAL FORMULATIONS OF PHENYLALANINE AND CANNABINOIDS” (priority 2018, published 2021).
Read-outs that look alike come from different tables or passages of the source.

Tests used:
human CB1R [1] = molecular target: T1, human CB1R (Homo sapiens, UniProt P21554); assay type: cell-based
T1 construct: expressed in transfected cells; host or cells: HEK293T (HEK293T-CB1), transiently co-transfected with the CRE-luc reporter

human CB1R [2] = molecular target: T1, human CB1R; assay type: cell-based; details: for Effect of the cannabinoid on the DLPA effect (DLPA alone vs combos): FIG. 5A-5C
[3] = test system: neuropathic and chronic pain; details: 1,000 mg given ×1 (once a day); cited from earlier work
inflammation = details: co-administered with THC; cited from earlier work
[4] = cited from earlier work
[5] = test system: glutamatergic synapses in hippocampus and cortex; details: cited from earlier work
[6] = molecular target: α2δ Ca2+ calcium channels; details: antagonist; cited from earlier work
[7] = DLPA 1 mM, alone or + 10 μM THCA or THC
[8] = DLPA 2.5 mM, alone or + 10 μM THCA or THC
[9] = DLPA 5 mM, alone or + 10 μM THCA or THC
[10] = DLPA 7.5 mM, alone or + 10 μM THCA or THC
[11] = DLPA 10 mM, alone or + 10 μM THCA or THC
[12] = DLPA 1 mM, alone or + 10 μM THCA, 1 μM CBD or 10 μM THC
[13] = DLPA 2.5 mM, alone or + 10 μM THCA, 1 μM CBD or 10 μM THC
[14] = DLPA 5 mM, alone or + 10 μM THCA, 1 μM CBD or 10 μM THC
[15] = DLPA 7.5 mM, alone or + 10 μM THCA, 1 μM CBD or 10 μM THC
[16] = DLPA 10 mM, alone or + 10 μM THCA, 1 μM CBD or 10 μM THC
[17] = THCA or THC without DLPA, 10 μM

T1 sequence (P21554 whole entry): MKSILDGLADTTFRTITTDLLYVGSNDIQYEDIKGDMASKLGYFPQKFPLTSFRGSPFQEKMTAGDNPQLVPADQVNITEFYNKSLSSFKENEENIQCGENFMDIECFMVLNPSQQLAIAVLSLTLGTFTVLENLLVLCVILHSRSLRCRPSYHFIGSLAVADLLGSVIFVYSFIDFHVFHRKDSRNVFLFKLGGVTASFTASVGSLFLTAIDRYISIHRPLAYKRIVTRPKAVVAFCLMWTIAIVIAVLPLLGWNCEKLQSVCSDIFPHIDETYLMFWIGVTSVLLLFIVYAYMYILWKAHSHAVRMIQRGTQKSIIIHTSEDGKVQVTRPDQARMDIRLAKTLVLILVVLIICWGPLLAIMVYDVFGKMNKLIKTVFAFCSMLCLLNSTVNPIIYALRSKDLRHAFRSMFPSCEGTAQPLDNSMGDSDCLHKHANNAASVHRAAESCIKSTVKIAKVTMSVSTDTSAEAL

## NC(Cc1ccccc1)C(=O)O (racemic) [DLPA, DL-Phenylalanine]
Human CB1R [1]; [7]
  Conclusions: Is CB1R agonist effect observed?: Negative (Only treatments that the mean of three consecutive independent experiments shows a positive result: CB1R activity ≥2.5-fold increase or ≥4-fold increase are considered CB1R agonists or CB1R positive allosteric modulators)
  Experiment 1 Fold change: 0.9 fold change
  Experiment 2 Fold change: 0.9 fold change
  Experiment 3 Fold change: 1.0 fold change
Human CB1R [1]; [8]
  Conclusions: Is CB1R agonist effect observed?: Negative (Only treatments that the mean of three consecutive independent experiments shows a positive result: CB1R activity ≥2.5-fold increase or ≥4-fold increase are considered CB1R agonists or CB1R positive allosteric modulators)
  Experiment 1 Fold change: 1.0 fold change
  Experiment 2 Fold change: 0.9 fold change
  Experiment 3 Fold change: 0.9 fold change
Human CB1R [1]; [9]
  Conclusions: Is CB1R agonist effect observed?: Negative (Only treatments that the mean of three consecutive independent experiments shows a positive result: CB1R activity ≥2.5-fold increase or ≥4-fold increase are considered CB1R agonists or CB1R positive allosteric modulators)
  Experiment 1 Fold change: 0.8 fold change
  Experiment 2 Fold change: 0.8 fold change
  Experiment 3 Fold change: 0.7 fold change
Human CB1R [1]; [10]
  Conclusions: Is CB1R agonist effect observed?: Negative (Only treatments that the mean of three consecutive independent experiments shows a positive result: CB1R activity ≥2.5-fold increase or ≥4-fold increase are considered CB1R agonists or CB1R positive allosteric modulators)
  Experiment 1 Fold change: 1.0 fold change
  Experiment 2 Fold change: 0.8 fold change
  Experiment 3 Fold change: 1.0 fold change
Human CB1R [1]; [11]
  Conclusions: Is CB1R agonist effect observed?: Negative (Only treatments that the mean of three consecutive independent experiments shows a positive result: CB1R activity ≥2.5-fold increase or ≥4-fold increase are considered CB1R agonists or CB1R positive allosteric modulators)
  Experiment 1 Fold change: 1.1 fold change
  Experiment 2 Fold change: 1.0 fold change
  Experiment 3 Fold change: 1.0 fold change
Human CB1R [1]; all tested concentrations, DLPA 1-10 mM, THC or THCA 10 μM
  CB1R agonistic activity (in words): did not show CB1R agonistic activity
Human CB1R [2]; [12]
  Conclusions: Is CB1R positive allosteric agonism effect observed?: Negative (Only treatments that the mean of three consecutive independent experiments shows a positive result (CB1R activity ≥4-fold change) are considered positive CB1R allosteric agonists)
  Experiment 1 Fold change: 2.7 fold change
  Experiment 2 Fold change: 2.5 fold change
  Experiment 3 Fold change: 3.0 fold change
Human CB1R [2]; [13]
  Conclusions: Is CB1R positive allosteric agonism effect observed?: Negative (Only treatments that the mean of three consecutive independent experiments shows a positive result (CB1R activity ≥4-fold change) are considered positive CB1R allosteric agonists)
  Experiment 1 Fold change: 2.4 fold change
  Experiment 2 Fold change: 2.1 fold change
  Experiment 3 Fold change: 4.0 fold change
Human CB1R [2]; [14]
  Conclusions: Is CB1R positive allosteric agonism effect observed?: Negative (Only treatments that the mean of three consecutive independent experiments shows a positive result (CB1R activity ≥4-fold change) are considered positive CB1R allosteric agonists)
  Experiment 1 Fold change: 3.1 fold change
  Experiment 2 Fold change: 2.7 fold change
  Experiment 3 Fold change: 2.9 fold change
Human CB1R [2]; [15]
  Conclusions: Is CB1R positive allosteric agonism effect observed?: Negative (Only treatments that the mean of three consecutive independent experiments shows a positive result (CB1R activity ≥4-fold change) are considered positive CB1R allosteric agonists)
  Experiment 1 Fold change: 3.1 fold change
  Experiment 2 Fold change: 3.1 fold change
  Experiment 3 Fold change: 5.0 fold change
Human CB1R [2]; [16]
  Conclusions: Is CB1R positive allosteric agonism effect observed?: Allosterism (An increase of the fold change ≥4-fold indicates CB1R positive allosteric agonistic activity)
  Experiment 1 Fold change: 4.0 fold change
  Experiment 2 Fold change: 3.5 fold change
  Experiment 3 Fold change: 6.5 fold change
Human CB1R [2]; on CP-55940 activity, dose-response curve, FIG. 4
  CB1R positive allosteric effect (in words): clear CB1R positive allosteric effect
[3]
  Relief of neuropathic and chronic pain: beneficial

## CCCCCc1cc(O)c2c(c1)OC(C)(CCC=C(C)C)C=C2 (stereo not drawn) [CBC, cannabichromene]
inflammation
  Anti-inflammatory effect: enhanced anti-inflammatory effect

## C=C(C)[C@@H]1CCC(C)=C[C@H]1c1c(O)cc(CCCCC)cc1O [CBD, cannabidiol, reference compound]
Human CB1R [2]; CBD without DLPA, 1 μM
  Conclusions: Is CB1R positive allosteric agonism effect observed?: Negative (Only treatments that the mean of three consecutive independent experiments shows a positive result (CB1R activity ≥4-fold change) are considered positive CB1R allosteric agonists)
  Experiment 1 Fold change: 1.4 fold change
  Experiment 2 Fold change: 1.5 fold change
  Experiment 3 Fold change: 1.4 fold change
Human CB1R [2]
  Effect of the cannabinoid on the DLPA effect (DLPA alone vs combos): blocked not only the DLPA CB1R allosteric activity, but also the agonistic activity of CP-55940

## C=C(C)[C@@H]1CCC(C)=C[C@H]1c1c(O)cc(CCCCC)c(C(=O)O)c1O [CBDA, cannabidiolic acid]
[4]
  Decarboxylation by gastric acids: do not decarboxylate

## CCCCCCC(C)(C)c1ccc([C@@H]2C[C@H](O)CC[C@H]2CCCO)c(O)c1 [CP, reference compound]
Human CB1R [1]
  Experiment 1 Fold change: 2.5 fold change
  Experiment 2 Fold change: 2.5 fold change
  Experiment 3 Fold change: 2.5 fold change
Human CB1R [2]
  Experiment 1 Fold change: 2.5 fold change
  Experiment 2 Fold change: 2.5 fold change
  Experiment 3 Fold change: 2.5 fold change

## N[C@H](Cc1ccccc1)C(=O)O [D-phenylalanine]
[5]; compared with L-Phenylalanine
  Effect on neurotransmitter release (in words): significantly smaller effect

## N[C@@H](Cc1ccccc1)C(=O)O [L-Phenylalanine, L-phenylalanine]
[6]
  Ki: 0.98 µM
[5]; hippocampus and cortex
  IC50: 980 µM

## CCCCCc1cc2c(c(O)c1C(=O)O)[C@@H]1C=C(C)CC[C@H]1C(C)(C)O2 [THCA, tetrahydrocannabinolic acid]
Human CB1R [1]; THCA or THC alone, 10 μM
  Conclusions: Is CB1R agonist effect observed?: Negative (Only treatments that the mean of three consecutive independent experiments shows a positive result: CB1R activity ≥2.5-fold increase or ≥4-fold increase are considered CB1R agonists or CB1R positive allosteric modulators)
  Experiment 1 Fold change: 0.8 fold change
  Experiment 2 Fold change: 1.0 fold change
  Experiment 3 Fold change: 1.0 fold change
Human CB1R [2]
  Effect of the cannabinoid on the DLPA effect (DLPA alone vs combos): did not modify the DLPA effect
Human CB1R [2]; [17]
  Conclusions: Is CB1R positive allosteric agonism effect observed?: Negative (Only treatments that the mean of three consecutive independent experiments shows a positive result (CB1R activity ≥4-fold change) are considered positive CB1R allosteric agonists)
  Experiment 1 Fold change: 2.2 fold change
  Experiment 2 Fold change: 3.1 fold change
  Experiment 3 Fold change: 2.8 fold change
[4]
  Decarboxylation by gastric acids: do not decarboxylate
